Results as given in the CheMixHub viscosity set.
Several values for one entry are separate records, joined by “and”; a condition that tells them apart may be missing. Equal entries are not always repeated.

Test: xn = mol fraction of the nth substance listed

C1CN2CN3CCN(CN1C3)C2 + O
viscosity [mPa·s], 101 kPa
Details | x1 = 0.003598 | x1 = 0.007216 | x1 = 0.01073 | x1 = 0.01425 | x1 = 0.0183
293.15 K | 1.032 | 1.083 | 1.146 | 1.232 | 1.347
298.15 K | 0.928 | 0.985 | 1.047 | 1.129 | 1.24
300.15 K | 0.843 | 0.899 | 0.961 | 1.04 | 1.136
305.15 K | 0.764 | 0.822 | 0.88 | 0.96 | 1.054

CCC(N)C(=O)[O-].[K+] (stereo not drawn) + O
viscosity [mPa·s], 101.3 kPa
Details | x1 = 0.009 | x1 = 0.019 | x1 = 0.029 | x1 = 0.039 | x1 = 0.05 | x1 = 0.06
303.15 K | 0.988 | 1.223 | 1.552 | 1.974 | 2.518 | 3.297
308.15 K | 0.884 | 1.093 | 1.394 | 1.74 | 2.206 | 2.877
313.15 K | 0.803 | 0.984 | 1.257 | 1.559 | 1.962 | 2.544
318.15 K | 0.728 | 0.89 | 1.133 | 1.399 | 1.757 | 2.257
323.15 K | 0.67 | 0.813 | 1.032 | 1.272 | 1.585 | 2.017

CCCC[N+](CCCC)(CCCC)CCCC.[OH-] + O
viscosity [mPa·s], 101 kPa
Details | x1 = 0.00178 | x1 = 0.00364 | x1 = 0.007655 | x1 = 0.0121 | x1 = 0.01706 | x1 = 0.02262 | x1 = 0.0289
298.15 K | 1.232 | 1.332 | 1.432 | 2.03 | 2.632 | 3.779 | 4.942
303.15 K | 1.088 | 1.173 | 1.258 | 1.697 | 2.233 | 3.129 | 4.045
313.15 K | 0.8712 | 0.9342 | 0.9951 | 1.319 | 1.659 | 2.198 | 2.857
323.15 K | 0.716 | 0.7632 | 0.8107 | 1.04 | 1.289 | 1.692 | 2.115

NS(=O)(=O)c1cc(C(=O)O)c(NCc2ccco2)cc1Cl + O
viscosity, 101 kPa
Details | 293.15 K | 298.15 K | 303.15 K | 308.15 K | 313.15 K
x1 = 2e-05 | 1.009 mPa·s | 0.8969 mPa·s and 0.8925 mPa·s | 0.8057 mPa·s and 0.8013 mPa·s | 0.7295 mPa·s and 0.7245 mPa·s | 0.6618 mPa·s and 0.6566 mPa·s
x1 = 9e-05 | 1.017 mPa·s and 1.02 mPa·s | 0.9018 mPa·s and 0.9048 mPa·s | 0.81 mPa·s and 0.8104 mPa·s | 0.7336 mPa·s and 0.7368 mPa·s | 0.6659 mPa·s
x1 = 0.0002 | 1.022 mPa·s and 1.018 mPa·s | 0.9069 mPa·s and 0.9052 mPa·s | 0.8174 mPa·s and 0.8126 mPa·s | 0.7401 mPa·s and 0.7333 mPa·s | 0.6718 mPa·s and 0.6662 mPa·s

O=C(O)CC(O)(CC(=O)O)C(=O)O + O
viscosity [mPa·s]
Details | 293.15 K | 298.15 K | 303.15 K | 308.15 K | 313.15 K
100 kPa, x1 = 0.002 | – | 0.9112 | 0.8258 | 0.7481 | 0.6742
101.3 kPa, x1 = 0.00018 | 1.016 | 0.908 | 0.815 | 0.737 | 0.701
101.3 kPa, x1 = 0.0003607 | 1.025 | 0.917 | 0.822 | 0.741 | 0.675
101.3 kPa, x1 = 0.0005403 | 1.031 | 0.922 | 0.825 | 0.747 | 0.679

O=C([O-])C(F)(F)F.[Cs+] + O
viscosity [mPa·s], 101 kPa
Details | 298.15 K | 303.15 K | 308.15 K | 313.15 K
x1 = 0.00102 | 0.897 | 0.805 | 0.727 | 0.663
x1 = 0.00146 | 0.899 | 0.808 | 0.729 | 0.666
x1 = 0.002202 | 0.904 | 0.812 | 0.734 | 0.67
x1 = 0.00303 | 0.909 | 0.817 | 0.739 | 0.675
x1 = 0.003649 | 0.913 | 0.821 | 0.743 | 0.679
x1 = 0.004385 | 0.918 | 0.826 | 0.747 | 0.684
x1 = 0.005137 | 0.923 | 0.83 | 0.752 | 0.689
x1 = 0.005844 | 0.928 | 0.836 | 0.757 | 0.693
x1 = 0.006694 | 0.933 | 0.841 | 0.762 | 0.698
x1 = 0.007272 | 0.937 | 0.845 | 0.767 | 0.702
x1 = 0.008058 | 0.943 | 0.85 | 0.772 | 0.707
x1 = 0.008713 | 0.947 | 0.855 | 0.777 | 0.711
x1 = 0.009254 | 0.95 | 0.858 | 0.78 | 0.716
x1 = 0.01011 | 0.956 | 0.864 | 0.784 | 0.721
